The source of these data is ChEMBL document CHEMBL1201862, “PubChem BioAssay data set” (2004).

The structures appear in SMILES notation.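 Growth conditions: 96-well plates. Treatment: test compound, 48 hours, 5 concentrations. Analysis: linear interpolation between bracketing concentrations; unreached endpoints set to highest concentration. GI50 is the concentration that inhibits growth by half.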 Calls of active or inactive are those of the source. Rule as the data show it: active = GI50 up to about 1.1 µM and inactive = higher.

Among the test systems are MDA-MB-435; MDA-N; K562; HL-60; HOP-62; ACHN; KM12; EKVX; A498; NCI-H460; OVCAR-5; COLO 205; SF-539; MOLT-4; MCF7; HOP-92; CCRF-CEM; SF-295; NCI-H226; SNB-19.
Holding throughout (assay): DTP human tumour cell line panel, 48 h

For `Cc1cc(S(=O)(=O)[N-]C(=C(C#N)C#N)[n+]2ccc(N(C)C)cc2)c(SCC(=O)O)cc1Cl`, the GI50 in the assay with MDA-MB-435, in the assay on MDA-N, in the assay on K562, in the assay on HL-60, in the assay on HOP-62 and with ACHN was > 100 µM (inactive) throughout. In addition, the GI50 with KM12, in the assay with EKVX, in the assay with A498, in the assay with NCI-H460, in the assay with OVCAR-5 and in the assay on COLO 205 was > 100 µM (inactive) each time. In addition, the GI50 in the assay on SF-539 was > 100 µM (inactive); in the assay on MOLT-4 it was > 100 µM (inactive); in the assay on MCF7, > 100 µM (inactive); in the assay with HOP-92, 10 µM (inactive); in the assay on CCRF-CEM, > 100 µM (inactive); in the assay on SF-295, > 100 µM (inactive). The GI50 with NCI-H226 and in the assay with SNB-19 was > 100 µM (inactive) throughout.
For `Cc1nc(N)c(N2CCNCC2)c(O)n1`, the GI50 in the assay with MDA-MB-435, with MDA-N, in the assay on K562, with HL-60, with HOP-62 and in the assay on ACHN was > 100 µM (inactive) throughout. Besides, the GI50 in the assay with KM12, with EKVX, in the assay with A498, with NCI-H460, in the assay with OVCAR-5 and in the assay on COLO 205 was > 100 µM (inactive) each time. In addition, the GI50 in the assay on SF-539, in the assay with MOLT-4, in the assay on MCF7, in the assay with HOP-92, with CCRF-CEM and with SF-295 was > 100 µM (inactive) throughout. The GI50 in the assay with NCI-H226 and in the assay on SNB-19 was > 100 µM (inactive) each time.
On to `Cc1c(C)c(S(=O)(=O)N(CCCCN)OCCCN)c(C)c2c1OC(C)(C)CC2`, for which the GI50 in the assay on MDA-MB-435 was 16.5 µM (inactive); in the assay on MDA-N, 22.8 µM (inactive); in the assay with K562 it was 32.4 µM (inactive); in the assay on HL-60 it was 1 µM (active); with HOP-62, 13.4 µM (inactive); in the assay on ACHN, 20.8 µM (inactive). For the same compound, the GI50 with KM12 was 17.1 µM (inactive); in the assay with EKVX it was 16 µM (inactive); with A498, 16 µM (inactive); in the assay on NCI-H460, 12.9 µM (inactive); in the assay on OVCAR-5, 15.1 µM (inactive); with COLO 205 it was 31.2 µM (inactive). Also, the GI50 is 24 µM (inactive) in the assay with SF-539; 19.6 µM (inactive) with MOLT-4; 26.6 µM (inactive) in the assay with MCF7; 17.8 µM (inactive) in the assay on HOP-92; 16.4 µM (inactive) with CCRF-CEM; 17.7 µM (inactive) with SF-295. Further, the GI50 with NCI-H226 is 13.1 µM (inactive); in the assay with SNB-19 it was 15.1 µM (inactive).
For the compound `CC[C@@H](/C=C\CCC1(C[C@@H](N)CCC=C(C)C)OCCO1)O[Si](C(C)C)(C(C)C)C(C)C`, the GI50 was 18.4 µM (inactive) with MDA-MB-435; 16.4 µM (inactive) with MDA-N; 10.8 µM (inactive) with K562; 4.28 µM (inactive) in the assay with HL-60; 22 µM (inactive) in the assay with HOP-62; 18 µM (inactive) with ACHN. For the same compound, the GI50 in the assay on KM12 was 18.1 µM (inactive); in the assay with EKVX, 15.6 µM (inactive); in the assay on A498 it was 18.2 µM (inactive); with NCI-H460, 18.4 µM (inactive); in the assay with OVCAR-5, 17.2 µM (inactive); in the assay on COLO 205, 13.6 µM (inactive). In addition, the GI50 was 17.7 µM (inactive) in the assay with SF-539; 17.6 µM (inactive) with MOLT-4; 16.3 µM (inactive) in the assay on MCF7; 14.9 µM (inactive) in the assay with HOP-92; 11.6 µM (inactive) with CCRF-CEM; 19 µM (inactive) in the assay on SF-295. Besides, the GI50 in the assay with NCI-H226 was 17.4 µM (inactive); with SNB-19, 18.5 µM (inactive).
For the compound `CC(C)(C)C(=O)C(C(=O)c1ccccc1)C(=O)C(C)(C)C`, the GI50 in the assay on MDA-MB-435, in the assay on MDA-N, in the assay with K562, with HL-60, with HOP-62 and with ACHN was > 100 µM (inactive) each time. In addition, the GI50 in the assay with KM12, in the assay on EKVX, in the assay on A498, in the assay on NCI-H460, with OVCAR-5 and in the assay on COLO 205 was > 100 µM (inactive) throughout. Further, the GI50 with SF-539, in the assay with MOLT-4, with MCF7, in the assay on HOP-92, with CCRF-CEM and in the assay with SF-295 was > 100 µM (inactive) in each case. Also, the GI50 with NCI-H226 and in the assay on SNB-19 was > 100 µM (inactive) throughout.
With `CN(C)CC1CC/C(=C\c2ccc(O)cc2)C1=O` (stereo not given), the GI50 in the assay with MDA-MB-435 was 5.07 µM (inactive); in the assay on MDA-N, 2.71 µM (inactive); with K562, 0.975 µM (active); with HL-60, 0.631 µM (active); in the assay with HOP-62, 18.5 µM (inactive); in the assay on ACHN, 3.51 µM (inactive). The GI50 with KM12 was 4.18 µM (inactive); in the assay with EKVX, 4.83 µM (inactive); with A498, 9.35 µM (inactive); with NCI-H460, 17.5 µM (inactive); in the assay on OVCAR-5, 17.4 µM (inactive); in the assay with COLO 205, 1.87 µM (inactive). Also, the GI50 was 7.8 µM (inactive) in the assay on SF-539; 1.69 µM (inactive) in the assay on MOLT-4; 1.66 µM (inactive) with MCF7; 2.48 µM (inactive) in the assay with HOP-92; 0.933 µM (active) with CCRF-CEM; 19.2 µM (inactive) in the assay with SF-295. Besides, the GI50 was 10.4 µM (inactive) in the assay on NCI-H226 and 16.9 µM (inactive) in the assay on SNB-19.
`Cc1ccc2c(O)cc(-c3cccs3)nc2n1`: the GI50 with MDA-MB-435 is 1.58 µM (inactive); in the assay with MDA-N, 1.47 µM (inactive); in the assay with K562, 5.81 µM (inactive); in the assay on HL-60 it was 2.7 µM (inactive); in the assay on HOP-62 it was 37.9 µM (inactive); in the assay on ACHN, 33 µM (inactive). Besides, the GI50 with KM12 was 2.76 µM (inactive); in the assay on EKVX, 57 µM (inactive); in the assay on A498, > 54.8 µM (inactive); in the assay on NCI-H460, 5.08 µM (inactive); with OVCAR-5, > 22.3 µM (inactive); in the assay with COLO 205, 6.98 µM (inactive). The GI50 in the assay on SF-539 was 8.49 µM (inactive); in the assay with MOLT-4 it was 9.64 µM (inactive); in the assay on MCF7 it was 3.86 µM (inactive); in the assay with HOP-92, 57 µM (inactive); in the assay with CCRF-CEM, 15.3 µM (inactive); in the assay with SF-295 it was 17 µM (inactive). Besides, the results for the GI50 in the assay on NCI-H226 and in the assay with SNB-19 were 8.91 µM (inactive) and 11.7 µM (inactive), respectively.

One may read the GI50 as the concentration at which growth is held to half of that of the control.
